Marks after values point to notes of the source that are not given here.
Key:
[1] = tested on: hyperuricemic gout subjects with moderate to severe renal impairment; assay: Example 1 study: subjects experiencing gout flares; assay type: in vivo, human
Method: All subjects received colchicine 0.6 mg every other day (QOD) from the initial screening visit through the Month 6 visit only. Alternatively, if colchicine was not tolerated by the subject, prednisone may have been provided at the investigator's discretion in accordance with the stated guidelines listed under Prohibited Concomitant Medications.
All subjects were instructed to take colchicine 0.6 mg QOD for prophylaxis. Colchicine began at the Screening Day −21 visit for all subjects. Subjects received colchicine 0.6 mg QOD through the Month 6 visit.
Subjects were assessed for gout flares from the time the ICF was signed and throughout the duration of the study. Subjects were instructed to call the Investigator as soon as they thought they were having a gout flare. The Gout Flare Assessment Worksheet was completed by the site personnel (ie, study coordinator, study nurse, or the investigator).
Subjects were instructed to report the following information: the onset and end date of the flare, the kind of prophylaxis medication they were taking at the time of the event, whether or not the attack required medication (including type) and dates of treatment, the location of the flare, signs and symptoms regarding the flare including the severity, subjects' pain intensity (pain in rest), and the assessment of current gout flare compared to all previous gout flares in any joints. In addition, the subjects were asked an exploratory question in nature: the subject was asked during their current gout attack to indicate the degree of which the subject's physical mobility had been limited (on a scale of 0-10). The investigator reviewed the information provided and assessed whether or not they believed the subject experienced a gout flare and/or documented an alternative etiology.
Summary statistics for the number and percentage of subjects experiencing a gout flare were summarized by treatment group within the following intervals: Day 1 to Month 2 (Day 1 to 60), Month 2 to 4 (Day 61 to 120), Month 4 to 6 (Day 121 to 180), Month 6 to 8 (Day 181 to 240), Month 8 to 10 (Day 241 to 300), Month 10 to 12 (>day 301, and overall Day 1 to Month 6, and Month 6 to Month 12. All gout flares with onset after Day 301 (including those reported <30 days since last dose) were included in the Month 10 to 12 interval.

[2] = tested on: hyperuricemic gout subjects with moderate to severe renal impairment; assay: Example 1 randomized double-blind 12 month study: serum urate (sUA); assay type: in vivo, human
Text: Randomization was stratified at baseline using 3 strata: subjects taking an angiotensin receptor blocker (ARB), subjects taking an angiotensin converting enzyme inhibitors (ACEi), or subjects not taking an ARB or an ACEi. […] Serum samples for the analysis of sUA were collected as part of the standard chemistry panel at the time points stipulated in Schedule of Study Procedures (Table 1). All samples were collected in accordance with standard laboratory procedures. Serum urate concentrations were determined using the enzymatic method as performed by the Central Laboratory and were blinded to the Sponsor and investigative site beginning at Day 1 through the Month 12/ET visits. Missing data in all efficacy analyses was imputed with the last available postbaseline observation carrying forward (LOCF). A subject was included in the analysis of a specific efficacy variable only when there was both a baseline value and at least 1 value during the double-blind treatment period. […] The percentage of subjects with sUA<6 mg/dL at Month 12 was summarized by treatment group, and the treatment groups were compared by a CMH test with prior use of an ARB or ACEi as a stratification variable. In addition, change from baseline and percent change from Baseline in sUA were summarized by visit and by treatment.

## Cc1nc(-c2ccc(OCC(C)C)c(C#N)c2)sc1C(=O)O [Febuxostat, 2-[3-cyano-4-(2-methylpropoxy)phenyl]-4-methylthiazole-5-carboxylic acid]
[1]; 30 mg BID, 2 to ≤4 months
  Percentage of Subjects With Gout Flares: (10.7) %
[1]; 30 mg BID, 4 to ≤6 months
  Percentage of Subjects With Gout Flares: (14.3) %
[1]; 30 mg BID, 4 to ≤6 months, listed as febuxostat
  Percentage of Subjects With Gout Flares: 14.3%
[1]; 30 mg BID, 6 to ≤8 months (after prophylaxis ended)
  Percentage of Subjects With Gout Flares: (26.3) %
[1]; 30 mg BID, 6 to ≤8 months (after prophylaxis ended), listed as febuxostat
  Percentage of Subjects With Gout Flares: 26.3%
[1]; 30 mg BID, 8 to ≤10 months
  Percentage of Subjects With Gout Flares: (5.9) %
[1]; 30 mg BID, 10 to ≤12 months
  Percentage of Subjects With Gout Flares: (11.8) %
[1]; 30 mg BID, Day 1 to Month 6
  Percentage of Subjects With Gout Flares: (28.1)* %
[1]; 30 mg BID, Day 1 to Month 6, listed as febuxostat
  Percentage of Subjects With Gout Flares: 28.1%
[1]; 30 mg BID, Month 6 to Month 12
  Percentage of Subjects With Gout Flares: (31.6)* %
[1]; 30 mg BID, Month 6 to Month 12, listed as febuxostat
  Percentage of Subjects With Gout Flares: 31.6%
[1]; 30 mg BID, ≤2 months
  Percentage of Subjects With Gout Flares: (18.8)* %
[1]; 30 mg IR BID
  Increase of percentage of subjects with at least one gout flare, months 6 to ≤8 relative to months 4 through 6: 84%
[1]; 40/80 mg IR QD
  Increase of percentage of subjects with at least one gout flare, months 6 to ≤8 relative to months 4 through 6: 279%
[1]; 40/80 mg QD, 2 to ≤4 months
  Percentage of Subjects With Gout Flares: (27.6) %
[1]; 40/80 mg QD, 4 to ≤6 months
  Percentage of Subjects With Gout Flares: (17.9) %
[1]; 40/80 mg QD, 4 to ≤6 months, listed as febuxostat
  Percentage of Subjects With Gout Flares: 17.9%
[1]; 40/80 mg QD, 6 to ≤8 months (after prophylaxis ended)
  Percentage of Subjects With Gout Flares: (50.0) %
[1]; 40/80 mg QD, 6 to ≤8 months (after prophylaxis ended), listed as febuxostat
  Percentage of Subjects With Gout Flares: 50.0%
[1]; 40/80 mg QD, 8 to ≤10 months
  Percentage of Subjects With Gout Flares: (22.2) %
[1]; 40/80 mg QD, 10 to ≤12 months
  Percentage of Subjects With Gout Flares: (23.1) %
[1]; 40/80 mg QD, Day 1 to Month 6
  Percentage of Subjects With Gout Flares: (56.3) %
[1]; 40/80 mg QD, Day 1 to Month 6, listed as febuxostat
  Percentage of Subjects With Gout Flares: 56.3%
[1]; 40/80 mg QD, Month 6 to Month 12
  Percentage of Subjects With Gout Flares: (64.3) %
[1]; 40/80 mg QD, Month 6 to Month 12, listed as febuxostat
  Percentage of Subjects With Gout Flares: 64.3%
[1]; 40/80 mg QD, ≤2 months
  Percentage of Subjects With Gout Flares: (50.0) %
[2]; 30 mg BID, Day 14
  Percentage of Subjects with sUA < 6.0 mg/dL: 71.9 (23/32) %
[2]; 30 mg BID, Month 1
  Percentage of Subjects with sUA < 6.0 mg/dL: 71.9 (23/32) %
[2]; 30 mg BID, Month 3
  Percentage of Subjects with sUA < 6.0 mg/dL: 78.1 (25/32) %
[2]; 30 mg BID, Month 6
  Percentage of Subjects with sUA < 6.0 mg/dL: 65.6 (21/32)* %
  Serum urate change from Baseline, LS mean (SE): −5.08 (0.304) mg/dL
  Serum urate change from Baseline, LS mean difference (SE) from placebo group: −5.15 (0.428) mg/dL
[2]; 30 mg BID, Month 9
  Percentage of Subjects with sUA < 6.0 mg/dL: 68.8 (22/32) %
[2]; 30 mg BID, Month 12
  Percentage of Subjects with sUA < 6.0 mg/dL: 68.8 (22/32)* %
  Serum urate change from Baseline, LS mean (SE): −4.97 (0.318) mg/dL
  Serum urate change from Baseline, LS mean difference (SE) from placebo group: −4.82 (0.447) mg/dL
[2]; 30 mg BID, Month 12, listed as febuxostat
  Serum urate change from Baseline, LS mean (SE): -4.97 mg/dL
[2]; 40/80 mg QD, Day 14
  Percentage of Subjects with sUA < 6.0 mg/dL: 33.3 (10/30) %
[2]; 40/80 mg QD, Month 1
  Percentage of Subjects with sUA < 6.0 mg/dL: 35.5 (11/31) %
[2]; 40/80 mg QD, Month 3
  Percentage of Subjects with sUA < 6.0 mg/dL: 58.1 (18/31) %
[2]; 40/80 mg QD, Month 6
  Percentage of Subjects with sUA < 6.0 mg/dL: 51.6 (16/31)* %
  Serum urate change from Baseline, LS mean (SE): −4.29 (0.309) mg/dL
  Serum urate change from Baseline, LS mean difference (SE) from placebo group: −4.36 (0.431) mg/dL
[2]; 40/80 mg QD, Month 9
  Percentage of Subjects with sUA < 6.0 mg/dL: 58.1 (18/31) %
[2]; 40/80 mg QD, Month 12
  Percentage of Subjects with sUA < 6.0 mg/dL: 45.2 (14/31)* %
  Serum urate change from Baseline, LS mean (SE): −4.17 (0.323) mg/dL
  Serum urate change from Baseline, LS mean difference (SE) from placebo group: −4.02 (0.451) mg/dL
[2]; 40/80 mg QD, Month 12, listed as febuxostat
  Serum urate change from Baseline, LS mean (SE): -4.17 mg/dL
